Reference: ChEMBL document CHEMBL1136712, “Oxyguanidines: application to non-peptidic phenyl-based thrombin inhibitors” (Bioorg Med Chem Lett, 2003)

How the values were obtained:
Homo sapiens = organism: Homo sapiens; assay: The apparent permeability coefficient (Papp) was quantitated in the human Caco-2 monolayer assay; format: functional
Prothrombin = Prothrombin (Homo sapiens, UniProt P00734); assay: Inhibitory activity against alpha-human thrombin
[1] = Disassociation constant was determined; format: ADME
Coagulation factor X = Coagulation factor X (Homo sapiens, UniProt P00742); assay: In vitro inhibitory activity against serine protease FXa
[2] = Half life period by iv administration in dog at a dose of 6 mg/kg; format: ADME, organism-based, Canis lupus familiaris; design: dose 6 mg/kg, route intravenous; conditions: in vivo
Neutrophil elastase = molecular target: T1, Neutrophil elastase (Homo sapiens, UniProt P08246); assay: In vitro inhibitory activity against serine protease Elastase
T1 sequence (P08246 whole entry): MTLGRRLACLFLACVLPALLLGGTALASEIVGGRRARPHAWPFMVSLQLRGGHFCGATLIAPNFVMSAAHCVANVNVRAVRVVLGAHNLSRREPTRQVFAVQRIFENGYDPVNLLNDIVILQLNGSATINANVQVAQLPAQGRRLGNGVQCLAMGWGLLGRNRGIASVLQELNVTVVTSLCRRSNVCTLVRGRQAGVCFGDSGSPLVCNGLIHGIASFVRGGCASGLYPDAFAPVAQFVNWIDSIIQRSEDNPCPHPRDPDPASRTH

[3] = Oral bioavailability in dog; format: ADME, organism-based, Canis lupus familiaris; conditions: in vivo
Canis familiaris = organism: Canis familiaris; assay: In vitro metabolic potential in dog liver microsomes; format: ADME, Canis lupus familiaris
Rattus norvegicus = organism: Rattus norvegicus; assay: In vitro metabolic potential in rat liver microsomes; format: ADME
[4] = In vitro metabolic potential in human liver microsomes; format: ADME, Microsome
Serine protease 1 = Serine protease 1 (Homo sapiens, UniProt P07477); assay: In vitro inhibitory activity against serine protease Trypsin
Chymotrypsinogen B = Chymotrypsinogen B (Homo sapiens, UniProt P17538); assay: In vitro inhibitory activity against serine protease Chymotrypsin
[5] = Plasma clearance rate by iv administration in dog at a dose of 6 mg/kg; format: ADME, organism-based, Canis lupus familiaris; design: dose 6 mg/kg, route intravenous
Mus musculus = organism: Mus musculus; assay: In vitro metabolic potential in mouse liver microsomes; format: ADME
Plasminogen = Plasminogen (Homo sapiens, UniProt P00747); assay: In vitro inhibitory activity against serine protease Plasmin
Plasminogen, sequence (P00747 97-580 limits assumed): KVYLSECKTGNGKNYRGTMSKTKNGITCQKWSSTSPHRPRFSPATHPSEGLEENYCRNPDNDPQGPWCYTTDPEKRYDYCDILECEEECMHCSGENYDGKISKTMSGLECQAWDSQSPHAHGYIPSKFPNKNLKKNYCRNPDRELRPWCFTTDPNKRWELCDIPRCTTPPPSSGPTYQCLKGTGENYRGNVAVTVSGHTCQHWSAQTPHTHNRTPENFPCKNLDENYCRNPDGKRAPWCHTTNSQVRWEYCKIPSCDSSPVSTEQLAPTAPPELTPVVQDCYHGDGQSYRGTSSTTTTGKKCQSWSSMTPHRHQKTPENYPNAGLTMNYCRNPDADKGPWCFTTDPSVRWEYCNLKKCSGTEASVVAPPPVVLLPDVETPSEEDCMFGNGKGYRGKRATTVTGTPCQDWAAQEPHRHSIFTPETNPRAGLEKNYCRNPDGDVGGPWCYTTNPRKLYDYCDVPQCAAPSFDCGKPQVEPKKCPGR
Plasminogen, sequence (P00747 581-810 limits assumed): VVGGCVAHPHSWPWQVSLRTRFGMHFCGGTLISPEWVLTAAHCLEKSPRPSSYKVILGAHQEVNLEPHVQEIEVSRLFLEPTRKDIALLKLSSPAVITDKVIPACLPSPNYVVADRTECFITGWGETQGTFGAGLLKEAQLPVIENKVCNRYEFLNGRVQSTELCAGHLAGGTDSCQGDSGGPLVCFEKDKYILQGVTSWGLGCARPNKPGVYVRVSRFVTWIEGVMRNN

Coagulation factor X, sequence (P00742 41-179 limits assumed): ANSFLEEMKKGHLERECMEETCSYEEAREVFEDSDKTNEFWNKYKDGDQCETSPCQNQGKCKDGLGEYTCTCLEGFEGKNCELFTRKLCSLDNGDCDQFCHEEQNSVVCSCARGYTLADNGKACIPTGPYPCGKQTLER
Coagulation factor X, sequence (P00742 235-488 limits assumed): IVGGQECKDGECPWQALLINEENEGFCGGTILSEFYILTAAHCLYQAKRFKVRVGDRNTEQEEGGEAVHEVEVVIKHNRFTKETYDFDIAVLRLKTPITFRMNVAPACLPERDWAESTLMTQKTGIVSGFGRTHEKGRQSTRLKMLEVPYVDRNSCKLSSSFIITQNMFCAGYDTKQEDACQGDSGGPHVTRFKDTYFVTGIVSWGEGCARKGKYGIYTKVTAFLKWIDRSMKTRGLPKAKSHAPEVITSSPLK
Chymotrypsinogen B, sequence (P17538 34-164 limits assumed, other chains not shown): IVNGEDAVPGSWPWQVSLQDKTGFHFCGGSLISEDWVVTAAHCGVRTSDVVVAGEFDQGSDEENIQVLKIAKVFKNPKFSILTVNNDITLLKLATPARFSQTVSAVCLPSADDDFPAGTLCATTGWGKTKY
Chymotrypsinogen B, sequence (P17538 167-263 limits assumed, other chains not shown): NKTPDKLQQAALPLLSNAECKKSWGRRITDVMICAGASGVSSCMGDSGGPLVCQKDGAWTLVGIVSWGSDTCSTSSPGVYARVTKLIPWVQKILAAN
Serine protease 1, sequence (P07477 whole entry): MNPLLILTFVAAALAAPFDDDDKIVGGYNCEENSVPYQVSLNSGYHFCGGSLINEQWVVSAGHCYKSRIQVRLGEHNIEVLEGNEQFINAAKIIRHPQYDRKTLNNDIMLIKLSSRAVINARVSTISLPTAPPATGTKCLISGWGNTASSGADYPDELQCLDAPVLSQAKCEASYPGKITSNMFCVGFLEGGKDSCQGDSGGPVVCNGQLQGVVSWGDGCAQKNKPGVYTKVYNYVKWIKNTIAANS

| SMILES | Ki (Prothrombin) | further results |
| --- | --- | --- |
| Cc1cc(OCCCON=C(N)N)cc(OS(=O)(=O)c2ccccc2S(C)(=O)=O)c1 | – | Papp (Homo sapiens): 2.4 ×10⁻⁶ cm/s |
| C=C(CONC(=N)N)COc1cc(C)cc(OS(=O)(=O)c2ccccc2S(C)(=O)=O)c1 | 32.4 nM | – |
| Cc1cc(OCCCONC(=N)N)cc(OS(=O)(=O)c2cccc3cccnc23)c1 | 6.7 nM | – |
| Cc1cc(OCC(O)CON=C(N)N)cc(OS(=O)(=O)c2ccccc2S(C)(=O)=O)c1 (stereo not drawn) | 137 nM | – |
| COc1ccccc1S(=O)(=O)Oc1cc(C)cc(OCCCONC(=N)N)c1 | 6.7 nM | – |
| Cc1cc(OCCCONC(=N)N)cc(OS(=O)(=O)c2ccccc2C#N)c1 | 9.9 nM | – |
| CS(=O)(=O)c1ccccc1S(=O)(=O)Oc1cc(Cl)cc(OCCCON=C(N)N)c1 | 39.4 nM | – |
| Cc1cc(OCCCONC(=N)N)cc(OS(=O)(=O)c2ccc3c(c2)S(=O)(=O)CC3)c1 | 102 nM | – |
| COc1cc(OCCCONC(=N)N)cc(OS(=O)(=O)c2ccccc2S(C)(=O)=O)c1 | 34.6 nM | – |
| Cc1cc(OCCCON=C(N)N)cc(OS(=O)(=O)c2cccc3c2NCCC3)c1 | 31 nM | – |
| Cc1cc(OCCCON=C(N)N)cc(OS(=O)(=O)c2ccccc2N)c1 | 86.6 nM | – |
| Cc1cc(OCC(F)(F)CON=C(N)N)cc(OS(=O)(=O)c2ccccc2S(C)(=O)=O)c1 | 364 nM | – |
| Cc1cc(OCCCONC(=N)N)cc(OS(=O)(=O)c2ccc(S(C)(=O)=O)cc2S(C)(=O)=O)c1 | 749 nM | – |
| CS(=O)(=O)c1ccccc1S(=O)(=O)Oc1cc(F)cc(OCC2(CON=C(N)N)CC2)c1 | 49.3 nM | – |
| Cc1cc(OCC(F)CON=C(N)N)cc(OS(=O)(=O)c2ccccc2S(C)(=O)=O)c1 (stereo not drawn) | 114 nM | – |
| CS(=O)(=O)c1ccccc1S(=O)(=O)Oc1cc(CO)cc(OCC2(CON=C(N)N)CC2)c1 | 403 nM | – |
| CCc1cc(OCCCONC(=N)N)cc(OS(=O)(=O)c2ccccc2S(C)(=O)=O)c1 | 29.7 nM | – |
| Cc1cc(OCCCON=C(N)N)cc(OS(=O)(=O)c2cccc3cnccc23)c1 | 13.2 nM | – |
| Cc1cc(OCCCON=C(N)N)cc(OS(=O)(=O)c2cccc(S(C)(=O)=O)c2)c1 | 204 nM | – |
| Cc1cc(OCCCONC(=N)N)cc(OS(=O)(=O)c2ccccc2S(C)(=O)=O)c1 | – | pKa [1]: 7.05; Ki (Coagulation factor X): > 22000 nM; half-life [2]: 7.3 h; Ki (Neutrophil elastase): > 22000 nM; bioavailability [3]: 95%; Microsomal stability (Canis familiaris): 21.1 pg min-1 (mg of protein)-1; Microsomal stability (Rattus norvegicus): 69.5 pg min-1 (mg of protein)-1; Microsomal stability [4]: 50.4 pg min-1 (mg of protein)-1; Ki (Serine protease 1): > 22000 nM; Ki (Chymotrypsinogen B): > 22000 nM; clearance [5]: 6.9 mL/min/kg; Microsomal stability (Mus musculus): 30.8 pg min-1 (mg of protein)-1; Ki (Plasminogen): > 22000 nM |
| Cc1cc(OCCCONC(=N)N)cc(OS(=O)(=O)c2ccccc2S(=O)(=O)c2ccccc2)c1 | 4.8 nM | – |
